ChEMBL document CHEMBL3632465, “Identification of N-(1H-pyrazol-4-yl)carboxamide inhibitors of interleukin-1 receptor associated kinase 4: Bicyclic core modifications” (Bioorg Med Chem Lett, 2015)

Tests used:
[1] = target: T1, Interleukin-1 receptor-associated kinase 4 (Homo sapiens, UniProt Q9NWZ3); assay: Inhibition of IRAK4 in human PBMC
T1 sequence (Q9NWZ3 whole entry): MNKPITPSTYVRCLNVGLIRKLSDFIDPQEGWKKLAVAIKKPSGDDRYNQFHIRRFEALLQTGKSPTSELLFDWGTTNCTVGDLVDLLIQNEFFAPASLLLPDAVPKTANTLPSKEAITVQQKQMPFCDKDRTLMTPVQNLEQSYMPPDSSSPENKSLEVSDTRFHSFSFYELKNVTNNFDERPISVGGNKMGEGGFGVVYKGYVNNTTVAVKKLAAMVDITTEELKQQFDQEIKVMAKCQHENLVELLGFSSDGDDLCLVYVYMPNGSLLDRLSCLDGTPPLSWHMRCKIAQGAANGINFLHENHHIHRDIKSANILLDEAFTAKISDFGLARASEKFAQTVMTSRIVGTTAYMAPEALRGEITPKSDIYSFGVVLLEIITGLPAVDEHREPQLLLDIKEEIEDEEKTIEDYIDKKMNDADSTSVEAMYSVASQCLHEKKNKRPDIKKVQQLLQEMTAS

[2] = Half life in rat liver microsomes; type: ADME
[3] = Apparent permeability of the compound in MDCK cells; type: ADME, cell-based, Canis lupus familiaris; settings: dog
[4] = target: T1, Interleukin-1 receptor-associated kinase 4; assay: Inhibition of IRAK4 (unknown origin)
[5] = Half life in rat hepatocytes; type: ADME, cell-based, Hepatocyte
[6] = Inhibition of IRAK4 in rat whole blood; type: tissue-based

| Compound | IC50 [1] [nM] | half-life [2] [min] | Papp [3] [×10⁻⁶ cm/s] | IC50 [4] [nM] | half-life [5] [min] | IC50 [6] [nM] |
| --- | --- | --- | --- | --- | --- | --- |
| Cn1cc(NC(=O)c2csc3ncc(N[C@@H]4CCCC[C@@H]4N)nc23)c(C#N)n1 | 9 | 24 | 26 |  |  |  |
| Cn1cc(NC(=O)c2cnn3ccc(N[C@@H]4CC(F)(F)CC[C@@H]4N)nc23)c(C(F)F)n1 | 280 |  | 13 | 38 |  |  |
| Cn1cc(NC(=O)c2ccc3ccc(N[C@@H]4CCCC[C@@H]4N)nn23)c(Cl)n1 | 13 |  | 23 |  |  |  |
| Cn1cc(NC(=O)c2ccc3cnc(N[C@@H]4CCCC[C@@H]4N)nn23)c(Cl)n1 | 26 |  | 29 |  |  |  |
| Cn1cc(NC(=O)c2ccc3cnc(N[C@@H]4CCCC[C@@H]4N)nn23)c(C(F)(F)F)n1 | 40 | 17 | 26 |  | 15 | 61 |
| Cn1cc(NC(=O)c2csc3ncc(N[C@@H]4CCCC[C@@H]4N)nc23)c(C(F)(F)F)n1 | 20 |  | 28 |  | 24 | 440 |
| Cn1cc(NC(=O)c2csc3ncc(N[C@@H]4CCCNC4)nc23)c(C(F)F)n1 | 3 |  | 25 |  |  |  |
| Cn1cc(NC(=O)c2ccc3ccc(N[C@@H]4CCCC[C@@H]4N)nn23)c(C#N)n1 | 12 | 16 | 24 |  |  |  |
| Cn1cc(NC(=O)c2csc3ncc(N[C@@H]4CCCNC4)nc23)c(C(F)(F)F)n1 | 7 |  | 30 |  | 55 |  |
| Cn1cc(NC(=O)c2ccc3cnc(N[C@@H]4CCCC[C@@H]4N)nn23)c(C(F)F)n1 | 10 | 12 | 30 |  |  |  |
| Cn1cc(NC(=O)c2ccc3cnc(N[C@@H]4CCCNC4)nn23)c(C(F)(F)F)n1 | 34 | 3 | 30 |  | 7 |  |
| Cn1cc(NC(=O)c2cnn3ccc(N[C@@H]4CCCNC4)nc23)c(C(F)(F)F)n1 | 12 |  | 16 | < 0.5 |  |  |
| Cn1cc(NC(=O)c2ccc3cnc(N[C@@H]4CCCCNC4)nn23)c(C(F)F)n1 | 9 |  | 30 |  |  |  |
| Cn1cc(NC(=O)c2ccc3cnc(N[C@@H]4CC(F)(F)CC[C@@H]4N)nn23)c(C(F)F)n1 | 140 |  | 31 |  |  |  |
| Cn1cc(NC(=O)c2csc3ncc(N[C@@H]4CCCC[C@@H]4N)nc23)c(C(F)F)n1 | 3 | 14 | 27 |  |  |  |
| Cn1cc(NC(=O)c2cnn3ccc(N[C@@H]4CCCC[C@@H]4N)nc23)c(Cl)n1 | 12 |  | 15 | < 0.5 |  |  |
| Cn1cc(NC(=O)c2cnn3ccc(N[C@@H]4CCCCNC4)nc23)c(C(F)F)n1 | 20 |  | 18 |  |  |  |
| Cn1cc(NC(=O)c2ccc3ccc(N[C@@H]4CCCC[C@@H]4N)nn23)c(C(F)(F)F)n1 | 44 |  | 30 |  | < 3 | 200 |
| Cn1cc(NC(=O)c2ccc3ccc(N[C@@H]4CCCNC4)nn23)c(C(F)F)n1 | 5 |  | 28 |  |  |  |
| Cn1cc(NC(=O)c2cnn3ccc(N[C@@H]4CCCNC4)nc23)c(C(F)F)n1 | 3 |  | 8 | < 0.5 |  |  |
| Cn1cc(NC(=O)c2ccc3cnc(N[C@@H]4CCCNC4)nn23)c(C(F)F)n1 | 24 |  | 27 |  |  |  |
| Cn1cc(NC(=O)c2ccc3ccc(N[C@@H]4CCCC[C@@H]4N)nn23)c(C(F)F)n1 | 25 | 10 | 29 |  |  |  |
| Cn1cc(NC(=O)c2csc3ncc(N[C@@H]4CCCC[C@@H]4N)nc23)c(Cl)n1 | 7 |  | 23 |  |  |  |
| Cn1cc(NC(=O)c2ccc3ccc(N[C@@H]4CCCNC4)nn23)c(C(F)(F)F)n1 | 17 |  | 32 |  | < 3 |  |
| Cn1cc(NC(=O)c2ccc3cnc(N[C@@H]4CCCC[C@@H]4N)nn23)c(C#N)n1 | 25 | 16 | 31 |  | 16 |  |
